Assay results from patent US9884041B2 (YONSEI […], INC., priority 2010, dated 2018).

Columns and labels:
C57BL/6J mice [1] = assay: Body weight, food intake and visceral fat-pad weights of mice fed test diets (HFD-induced obesity); format: in vivo; settings: HFD with 0.05% piperonal, 10 weeks
Procedure: (§1) The obesity-inducing control diet used in the test was high-fat diet (HFD: 40% fat calorie, 17 g lard+3% corn oil/100 g diet). […] The normal diet (ND) was prepared under AIN-76 rodent diet (American Institute of Nutrition, Report of the American Institute of Nutrition ad hoc committee on standards for nutritional studies. J. Nutr. 107: 1340-1348, 1977) (see Table 1). Piperonal was purchased from Sigma-Aldrich.
(§2) 5-week-old male C57BL/6J mice (Orient, Korea) were accustomed to the laboratory environment for 1 week while feeding solid feed. Then, they were randomly divided into normal diet, high-fat diet and test groups and bred for a total of 10 weeks. The diet was given between 10 and 11 a.m. every day together with water. Food intake was measured every day and body weight was measured once a week. In order to avoid transient body weight increase after feed intake, body weight was measured 2 hours after removing the feed. After fasting the test animal for at least 12 hours and anesthetizing with diethyl ether, blood, liver and visceral fat (epididymal fat, perirenal fat, mesenteric fat and retroperitoneal fat) were taken and weighed after washing with 0.1 M PBS (pH 7.4). Blood taken from the abdominal aorta was centrifuged at 1000×g for 15 minutes for the separation of plasma.
The food efficiency ratio was calculated by dividing the total body weight gain during the experimental period (g) by the total food intake (g) (FIGS. 1 and 2).

C57BL/6J mice [2] = assay: Plasma lipid and glucose levels of mice fed test diets; format: in vivo; settings: HFD with 0.05% piperonal, 10 weeks
Procedure: as §1, §2
After 10 weeks of breeding, total cholesterol, HDL-cholesterol, triglyceride and glucose levels in the plasma and lipid levels in the liver tissue were measured as follows. Total cholesterol, HDL-cholesterol, triglyceride, free fatty acid and glucose levels in the plasma were measured twice for each using a commercially available kit (Bio Clinical System). LDL+VLDL cholesterol levels in the blood were calculated by subtracting HDL-cholesterol levels from the total cholesterol levels.

C57BL/6J mice [3] = assay: Liver weights, liver lipid levels and liver function indicators (ALT, AST) of mice fed test diets; format: in vivo; settings: HFD with 0.05% piperonal, 10 weeks
Procedure: as §1, §2
Lipids were extracted from the liver tissue according to Folch et al.'s method (Folch J et al., J Biol Chem. 226: 497-509 (1957)). After adding 1 mL of distilled water to 0.25 g of liver tissue, the liver tissue was homogenized using a Polytron homogenizer (IKA-Werke GmbH & Co., Ultra-Turrax, Staufen, Germany). After adding 5 mL of chloroform:methanol solution (2:1, v/v) to the homogenate and mixing well, the mixture was centrifuged at 1000×g for 10 minutes. After adding 2 mL of chloroform:methanol solution (2:1, v/v) again to the supernatant, the same procedure was repeated to completely separate the lipid components of the liver. After adding 3 mL of chloroform:methanol:0.05% CaCl2 (3:48:47, v/v/v) solution to the remaining pellets and mixing well for 1 minute, followed by centrifugation at 1000×g for 10 minutes, the resulting pellets were completely dried with nitrogen gas. The dried lipids were dissolved in 1 mL of methanol and then analyzed.
The same kit (Bio Clinical System) as that used for the plasma analysis was used to measure the triglyceride, cholesterol and free fatty acid levels of the liver tissue.
The activity of ALT (alanine aminotransferase) and AST (aspartate aminotransferase) used as liver function indicator were measured twice for each using a commercially available kit (Bio Clinical System, Korea).

UCP1 = assay: RT-PCR analysis of UCP1 gene expression in mouse visceral fat tissues; format: in vivo, mice; settings: mRNA by RT-PCR, normalized to GAPDH, to the similar level to the ND group
Excerpt: (§3) FIG. 7 represents the expression profiles of UCPs genes in the visceral fat tissues of mice. The left panel represents images of RT-PCR analysis results for UCP1 and UCP3, and the right panel represents relative expression levels of these genes. The data were normalized to GAPDH mRNA levels and expressed as relative values to those from ND mouse. The results are represented as mean±SEM (standard error) of values obtained from RNA sample of eight mice with three independent experiments. The characters above the bars indicate significant difference in dietary groups by one-way analysis of variance (ANOVA) test and Duncan's multiple range test (P<0.05).
(§4) After adding 1 mL of Trizol agent per 0.1 g of visceral fat tissues, the mixture was homogenized and centrifuged at 12,000×g for 10 min at 4° C. The supernatant was transferred to a new tube and 200 μl of chloroform was added to the tube, followed by vortexing. The same procedure was repeated twice and then the supernatant was transferred to a new tube, followed by addition of isopropanol and the supernatant at 1:1 ratio. […] The RNA sample concentration was measured at a wavelength of 260 nm and 280 nm using a UV/VIS spectrophotometer (Beckman coulter, DU730) and the integrity of RNA sample was verified by agarose gel electrophoresis. […]

UCP3 = assay: RT-PCR analysis of UCP3 gene expression in mouse visceral fat tissues; format: in vivo, mice; settings: mRNA by RT-PCR, normalized to GAPDH, to the similar level to the ND group
Excerpt: as §3, §4

C/EBPα = assay: RT-PCR analysis of C/EBPα gene expression in mouse liver tissues; format: in vivo, mice; settings: mRNA by RT-PCR, vs HFD, to levels similar for the ND
Excerpt: (§5) FIG. 8 represents the expression profiles of genes relating to lipogenesis in mice liver tissues. The left panel represents images of RT-PCR analysis results for C/EBPα, PPARγ2 and aP2, and the right panel represents relative expression levels of these genes. The data were normalized to GAPDH mRNA levels and expressed as relative values to those from ND mouse. The results are represented as mean±SEM (standard error) of values obtained from RNA sample of eight mice with three independent experiments. The characters above the bars indicate significant difference in dietary groups by one-way analysis of variance (ANOVA) test and Duncan's multiple range test (P<0.05).
as §4, with “liver” for “visceral fat”

PPARγ2 = assay: RT-PCR analysis of PPARγ2 gene expression in mouse liver tissues; format: in vivo, mice; settings: mRNA by RT-PCR, vs HFD, to levels similar for the ND
Excerpt: as §5
as §4, with “liver” for “visceral fat”

aP2 = assay: RT-PCR analysis of aP2 gene expression in mouse liver tissues; format: in vivo, mice; settings: mRNA by RT-PCR, vs HFD, to levels similar for the ND
Excerpt: as §5
as §4, with “liver” for “visceral fat”

TNF-α = assay: RT-PCR analysis of TNF-α gene expression in mouse liver tissues; format: in vivo, mice; settings: mRNA by RT-PCR
Excerpt: as §5, with “9” for “8”, “inflammation” for “lipogenesis”, “TNFα” for “C/EBPα, PPARγ2”, “IL-6,” for “aP2,”
as §4, with “liver” for “visceral fat”

IL-6 = assay: RT-PCR analysis of IL-6 gene expression in mouse liver tissues; format: in vivo, mice; settings: mRNA by RT-PCR
Excerpt: as §5, with “9” for “8”, “inflammation” for “lipogenesis”, “TNFα” for “C/EBPα, PPARγ2”, “IL-6,” for “aP2,”
as §4, with “liver” for “visceral fat”

[4] = tested on: cancinogenesis animal model; settings: in vivo; cited from earlier work
patients = settings: sense of smell stimulated through nasal cannula during MRI for cancer diagnosis; cited from earlier work
rats [5] = settings: cited from earlier work
human = human took 10 g of piperonal; cited from earlier work
rats [6] = settings: feed containing 0.1% piperonal and 0.5% piperonal, 2 years; cited from earlier work

O=Cc1ccc2c(c1)OCO2 [piperonal, 1,3-benzodioxole-5-carboxaldehyde]
decrease of body weight gain as compared to HFD (C57BL/6J mice [1]): 19%
reduced weight of epididymal fat-pad as compared to HFD (C57BL/6J mice [1]): 11%
reduced weight of mesenteric fat-pad as compared to HFD (C57BL/6J mice [1]): 20%
reduced weight of perirenal fat-pad as compared to HFD (C57BL/6J mice [1]): 35%
reduced weight of retroperitoneal fat-pad as compared to HFD (C57BL/6J mice [1]): 8%
reduction of total visceral fat weight, POD group vs HFD group (C57BL/6J mice [1]; P<0.001): 15%
daily food intake (C57BL/6J mice [1]; vs HFD): no significant change
lower atherogenic indices as compared to HFD group (C57BL/6J mice [2]): 17%
lower plasma level of free fatty acid as compared to HFD group (C57BL/6J mice [2]): 17%
lower plasma level of total cholesterol as compared to HFD group (C57BL/6J mice [2]): 14%
lower plasma level of triglyceride as compared to HFD group (C57BL/6J mice [2]): 21%
reduction of fasting blood sugar level as compared to HFD (C57BL/6J mice [2]): 27%
lower plasma level of LDL+VLDL cholesterol as compared to HFD group (C57BL/6J mice [2]; total cholesterol minus HDL-cholesterol): 18%
decrease of absolute organ weight of liver as compared to HFD (C57BL/6J mice [3]): 23%
decreased level of cholesterol in liver tissue as compared to HFD (C57BL/6J mice [3]): 39%
decreased level of free fatty acid in liver tissue as compared to HFD (C57BL/6J mice [3]): 27%
decreased level of triglyceride in liver tissue as compared to HFD (C57BL/6J mice [3]): 13%
decreased plasma activity of ALT as compared to HFD group (C57BL/6J mice [3]): 27%
decreased plasma activity of AST as compared to HFD group (C57BL/6J mice [3]): 15%
HFD-induced decrease in expression of UCP1 gene (UCP1): significantly reversed
HFD-induced decrease in expression of UCP3 gene (UCP3): significantly reversed
expression of C/EBPα gene (C/EBPα): significantly decreased
expression of PPARγ2 gene (PPARγ2): significantly decreased
expression of aP2 gene (aP2): significantly decreased
HFD-induced elevation in the expression of TNF-α (TNF-α): significantly reversed
HFD-induced elevation in the expression of IL-6 (IL-6): significantly reversed
effect in carcinogenesis animal model [4]: cancer inhibitory effect
anxiety of patients during MRI (patients): relief from anxiety
LD50 (rats [5]): more than 2,700 mg/kg
toxicity in human (human): no toxicity
toxicity in rats (rats [6]): no toxicity
